Measured values reported in ChEMBL document CHEMBL5465560, “Selectivity Literature for EUbOPEN Chemogenomic Library” (2024).
One block for each compound: values may come before it.

Key:
[1] = target: Myosin light chain kinase, smooth muscle (Homo sapiens, UniProt Q15746); assay: Selectivity interaction (LanthaScreen Eu Kinase Binding Assay) EUB0001632a MYLK; details: at 10 µM
[2] = target: Protein-tyrosine kinase 2-beta (Homo sapiens) (UniProt Q14289); assay: Selectivity interaction (ActivX KiNativ screen (kinase selectivity in THP-1 cell lysates)) EUB0000639a PTK2B; type: subcellular; details: lysate, at 1 µM
Sequence of Protein-tyrosine kinase 2-beta (Homo sapiens) (Q14289 whole entry, looked up): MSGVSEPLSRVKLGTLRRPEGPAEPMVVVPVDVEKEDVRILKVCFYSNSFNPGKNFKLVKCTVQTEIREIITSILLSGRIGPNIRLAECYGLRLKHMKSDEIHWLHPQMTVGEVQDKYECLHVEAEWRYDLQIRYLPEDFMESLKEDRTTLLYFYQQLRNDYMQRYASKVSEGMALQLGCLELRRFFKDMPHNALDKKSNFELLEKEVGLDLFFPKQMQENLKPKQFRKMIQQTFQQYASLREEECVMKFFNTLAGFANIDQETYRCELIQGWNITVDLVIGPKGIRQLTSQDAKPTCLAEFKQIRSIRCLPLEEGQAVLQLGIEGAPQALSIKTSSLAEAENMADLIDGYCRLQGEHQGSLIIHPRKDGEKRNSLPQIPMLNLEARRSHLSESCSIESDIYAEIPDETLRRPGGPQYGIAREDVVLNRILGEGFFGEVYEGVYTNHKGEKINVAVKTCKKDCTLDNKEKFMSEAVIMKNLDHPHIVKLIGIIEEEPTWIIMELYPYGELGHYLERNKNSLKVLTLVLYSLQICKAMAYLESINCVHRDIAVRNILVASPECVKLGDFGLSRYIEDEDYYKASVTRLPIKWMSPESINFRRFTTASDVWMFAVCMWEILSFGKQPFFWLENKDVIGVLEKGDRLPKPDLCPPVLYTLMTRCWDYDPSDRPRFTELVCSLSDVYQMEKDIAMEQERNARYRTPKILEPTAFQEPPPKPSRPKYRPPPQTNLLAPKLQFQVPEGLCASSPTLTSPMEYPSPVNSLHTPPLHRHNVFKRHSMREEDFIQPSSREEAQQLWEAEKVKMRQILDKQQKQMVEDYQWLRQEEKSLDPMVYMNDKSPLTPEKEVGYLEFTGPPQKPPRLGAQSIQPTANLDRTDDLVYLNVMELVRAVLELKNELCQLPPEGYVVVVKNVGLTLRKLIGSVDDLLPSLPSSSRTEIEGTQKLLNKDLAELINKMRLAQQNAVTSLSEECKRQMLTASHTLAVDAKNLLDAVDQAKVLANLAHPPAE

[3] = target: Leukocyte tyrosine kinase receptor (Homo sapiens, UniProt P29376); assay: Selectivity interaction (ProQinase) EUB0000171b LTK
Sequence of Leukocyte tyrosine kinase receptor (P29376 whole entry): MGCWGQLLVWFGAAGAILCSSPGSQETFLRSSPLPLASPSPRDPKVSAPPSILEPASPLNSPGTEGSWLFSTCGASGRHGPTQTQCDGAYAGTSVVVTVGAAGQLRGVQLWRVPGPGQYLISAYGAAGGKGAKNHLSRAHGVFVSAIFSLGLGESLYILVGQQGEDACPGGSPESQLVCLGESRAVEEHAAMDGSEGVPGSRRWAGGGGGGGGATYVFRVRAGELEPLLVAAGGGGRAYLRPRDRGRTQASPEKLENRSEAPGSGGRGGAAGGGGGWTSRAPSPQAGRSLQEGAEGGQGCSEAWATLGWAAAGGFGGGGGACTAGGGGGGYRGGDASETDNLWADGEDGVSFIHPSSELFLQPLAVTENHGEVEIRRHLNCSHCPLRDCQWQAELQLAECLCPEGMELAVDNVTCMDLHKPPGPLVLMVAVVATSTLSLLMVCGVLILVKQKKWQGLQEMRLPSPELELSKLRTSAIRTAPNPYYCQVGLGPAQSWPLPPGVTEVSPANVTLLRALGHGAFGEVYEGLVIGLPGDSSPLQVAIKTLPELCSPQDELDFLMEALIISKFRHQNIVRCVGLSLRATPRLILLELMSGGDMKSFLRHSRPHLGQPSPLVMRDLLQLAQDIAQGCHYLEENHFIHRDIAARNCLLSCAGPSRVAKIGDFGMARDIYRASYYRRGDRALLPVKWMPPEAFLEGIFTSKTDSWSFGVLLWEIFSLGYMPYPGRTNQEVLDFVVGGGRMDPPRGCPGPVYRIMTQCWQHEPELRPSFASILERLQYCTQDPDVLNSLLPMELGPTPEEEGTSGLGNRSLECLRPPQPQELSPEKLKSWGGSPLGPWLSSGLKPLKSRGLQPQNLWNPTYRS

[4] = target: T1, Ephrin type-A receptor 8 (Homo sapiens) (UniProt P29322); assay: Selectivity interaction (ProQinase) EUB0000171b EPHA8
T1 sequence (whole entry): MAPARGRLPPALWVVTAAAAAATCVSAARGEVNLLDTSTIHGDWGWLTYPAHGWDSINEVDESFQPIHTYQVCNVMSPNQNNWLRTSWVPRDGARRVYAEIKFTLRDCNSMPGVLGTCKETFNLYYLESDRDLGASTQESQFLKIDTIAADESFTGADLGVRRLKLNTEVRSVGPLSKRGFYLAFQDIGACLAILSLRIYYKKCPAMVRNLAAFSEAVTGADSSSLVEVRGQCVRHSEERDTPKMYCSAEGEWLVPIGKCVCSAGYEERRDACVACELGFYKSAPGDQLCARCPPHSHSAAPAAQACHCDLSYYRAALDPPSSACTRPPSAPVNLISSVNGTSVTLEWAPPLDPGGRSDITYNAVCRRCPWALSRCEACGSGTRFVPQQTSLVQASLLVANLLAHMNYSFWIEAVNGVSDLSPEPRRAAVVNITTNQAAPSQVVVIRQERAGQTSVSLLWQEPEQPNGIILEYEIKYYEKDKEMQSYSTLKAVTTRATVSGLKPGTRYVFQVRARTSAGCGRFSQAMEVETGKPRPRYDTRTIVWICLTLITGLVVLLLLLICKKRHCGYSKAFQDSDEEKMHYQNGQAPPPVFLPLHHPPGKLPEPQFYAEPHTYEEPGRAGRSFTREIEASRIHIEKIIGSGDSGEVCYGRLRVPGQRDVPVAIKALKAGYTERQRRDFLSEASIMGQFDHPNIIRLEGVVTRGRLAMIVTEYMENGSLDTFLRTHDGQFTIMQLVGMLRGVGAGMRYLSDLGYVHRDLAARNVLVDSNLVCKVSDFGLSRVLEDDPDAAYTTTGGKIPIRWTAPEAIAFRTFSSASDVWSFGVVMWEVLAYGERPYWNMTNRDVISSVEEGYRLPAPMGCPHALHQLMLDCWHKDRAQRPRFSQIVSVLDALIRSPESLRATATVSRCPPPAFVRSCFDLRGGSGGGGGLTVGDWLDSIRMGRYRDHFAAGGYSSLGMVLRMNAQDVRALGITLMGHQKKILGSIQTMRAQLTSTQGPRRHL

[5] = target: Serine/threonine-protein kinase Chk2 (Homo sapiens) (UniProt O96017); assay: Selectivity interaction (Kinase panel (DSF assay)) EUB0001559a CHEK2
Sequence of Serine/threonine-protein kinase Chk2 (Homo sapiens) (O96017 whole entry, canonical isoform): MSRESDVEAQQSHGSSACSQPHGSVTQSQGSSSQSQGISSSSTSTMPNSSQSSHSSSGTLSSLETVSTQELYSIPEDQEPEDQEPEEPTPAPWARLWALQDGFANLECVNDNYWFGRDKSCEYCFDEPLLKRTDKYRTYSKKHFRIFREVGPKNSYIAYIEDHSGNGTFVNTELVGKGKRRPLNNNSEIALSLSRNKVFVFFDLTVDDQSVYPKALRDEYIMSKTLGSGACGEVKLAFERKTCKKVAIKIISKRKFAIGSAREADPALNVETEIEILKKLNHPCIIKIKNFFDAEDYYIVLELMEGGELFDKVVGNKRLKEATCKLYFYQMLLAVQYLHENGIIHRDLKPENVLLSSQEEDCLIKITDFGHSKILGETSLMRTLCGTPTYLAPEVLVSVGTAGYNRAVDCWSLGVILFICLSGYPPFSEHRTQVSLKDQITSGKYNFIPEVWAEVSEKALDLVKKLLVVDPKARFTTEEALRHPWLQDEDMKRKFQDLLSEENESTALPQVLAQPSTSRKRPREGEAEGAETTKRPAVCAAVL

[6] = target: Casein kinase I isoform epsilon (Homo sapiens, UniProt P49674); assay: Selectivity interaction (Ambit KINOMEscan and KiNATiv profiling in Jurkat cells) EUB0000090b CSNK1E; type: cell-based; details: at 1 µM
Sequence of Casein kinase I isoform epsilon (P49674 whole entry, looked up, canonical isoform): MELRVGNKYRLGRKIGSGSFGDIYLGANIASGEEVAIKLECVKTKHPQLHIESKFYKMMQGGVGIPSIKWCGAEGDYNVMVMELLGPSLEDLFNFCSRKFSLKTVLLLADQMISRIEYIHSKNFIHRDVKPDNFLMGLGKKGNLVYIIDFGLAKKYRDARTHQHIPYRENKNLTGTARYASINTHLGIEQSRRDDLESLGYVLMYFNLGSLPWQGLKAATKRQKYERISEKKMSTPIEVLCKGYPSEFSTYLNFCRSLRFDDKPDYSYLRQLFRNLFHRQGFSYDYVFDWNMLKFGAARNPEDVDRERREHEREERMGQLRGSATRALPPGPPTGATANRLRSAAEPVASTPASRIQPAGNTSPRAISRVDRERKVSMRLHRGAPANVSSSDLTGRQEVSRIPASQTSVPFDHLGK

[7] = target: Fibroblast growth factor receptor 3 (Homo sapiens, UniProt P22607); assay: (§1) Selectivity interaction (Ambit KINOMEscan and KiNATiv profiling in Jurkat cells) EUB0000090b FGFR3; type: cell-based; details: at 1 µM
[8] = test system: Fibroblast growth factor receptor 3 (Homo sapiens), P22607 [G697C]; assay: as §1; type: cell-based; details: at 1 µM
[9] = target: T2, Histone-lysine N-methyltransferase EHMT2 (Homo sapiens) (UniProt Q96KQ7); assay: Selectivity interaction (Transferase panel (protein, RNA, and DNA methyltransferases. and EP300 (acetyltransferase))) EUB0000270b EHMT2
T2 sequence (whole entry): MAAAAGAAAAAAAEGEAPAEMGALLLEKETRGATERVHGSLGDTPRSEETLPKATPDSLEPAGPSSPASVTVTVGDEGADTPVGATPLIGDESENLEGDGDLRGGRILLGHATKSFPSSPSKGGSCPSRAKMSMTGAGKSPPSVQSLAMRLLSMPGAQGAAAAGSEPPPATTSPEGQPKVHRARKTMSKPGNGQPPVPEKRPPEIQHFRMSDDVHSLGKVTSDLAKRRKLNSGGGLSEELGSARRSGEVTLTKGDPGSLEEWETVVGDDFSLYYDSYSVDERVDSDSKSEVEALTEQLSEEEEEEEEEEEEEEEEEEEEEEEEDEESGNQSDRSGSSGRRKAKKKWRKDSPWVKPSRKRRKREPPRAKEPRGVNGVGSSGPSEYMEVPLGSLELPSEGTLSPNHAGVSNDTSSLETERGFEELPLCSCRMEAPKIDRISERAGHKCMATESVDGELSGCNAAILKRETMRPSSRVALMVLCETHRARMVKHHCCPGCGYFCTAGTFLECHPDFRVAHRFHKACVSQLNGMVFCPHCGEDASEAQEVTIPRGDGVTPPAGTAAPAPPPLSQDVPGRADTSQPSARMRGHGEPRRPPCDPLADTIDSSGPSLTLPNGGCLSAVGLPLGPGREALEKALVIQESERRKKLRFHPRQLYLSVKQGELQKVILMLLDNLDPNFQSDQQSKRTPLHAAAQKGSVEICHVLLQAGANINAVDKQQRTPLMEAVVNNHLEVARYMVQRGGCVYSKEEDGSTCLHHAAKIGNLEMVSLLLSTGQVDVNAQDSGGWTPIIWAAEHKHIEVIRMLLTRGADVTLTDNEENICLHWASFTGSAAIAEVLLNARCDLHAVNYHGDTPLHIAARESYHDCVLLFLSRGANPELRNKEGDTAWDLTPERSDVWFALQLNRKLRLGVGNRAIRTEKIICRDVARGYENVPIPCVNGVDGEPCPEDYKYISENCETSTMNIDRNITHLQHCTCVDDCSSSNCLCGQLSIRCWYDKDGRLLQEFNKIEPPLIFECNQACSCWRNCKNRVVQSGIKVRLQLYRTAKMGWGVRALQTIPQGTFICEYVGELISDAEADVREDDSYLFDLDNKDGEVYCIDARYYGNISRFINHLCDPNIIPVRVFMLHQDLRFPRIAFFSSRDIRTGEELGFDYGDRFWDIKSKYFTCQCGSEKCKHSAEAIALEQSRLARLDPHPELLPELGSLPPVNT

[10] = target: Proto-oncogene tyrosine-protein kinase receptor Ret (Homo sapiens, UniProt P07949); assay: (§2) Selectivity interaction (KinomeScan (DiscoverX)) EUB0000618a RET; details: at 10 µM
Sequence of Proto-oncogene tyrosine-protein kinase receptor Ret (P07949 whole entry): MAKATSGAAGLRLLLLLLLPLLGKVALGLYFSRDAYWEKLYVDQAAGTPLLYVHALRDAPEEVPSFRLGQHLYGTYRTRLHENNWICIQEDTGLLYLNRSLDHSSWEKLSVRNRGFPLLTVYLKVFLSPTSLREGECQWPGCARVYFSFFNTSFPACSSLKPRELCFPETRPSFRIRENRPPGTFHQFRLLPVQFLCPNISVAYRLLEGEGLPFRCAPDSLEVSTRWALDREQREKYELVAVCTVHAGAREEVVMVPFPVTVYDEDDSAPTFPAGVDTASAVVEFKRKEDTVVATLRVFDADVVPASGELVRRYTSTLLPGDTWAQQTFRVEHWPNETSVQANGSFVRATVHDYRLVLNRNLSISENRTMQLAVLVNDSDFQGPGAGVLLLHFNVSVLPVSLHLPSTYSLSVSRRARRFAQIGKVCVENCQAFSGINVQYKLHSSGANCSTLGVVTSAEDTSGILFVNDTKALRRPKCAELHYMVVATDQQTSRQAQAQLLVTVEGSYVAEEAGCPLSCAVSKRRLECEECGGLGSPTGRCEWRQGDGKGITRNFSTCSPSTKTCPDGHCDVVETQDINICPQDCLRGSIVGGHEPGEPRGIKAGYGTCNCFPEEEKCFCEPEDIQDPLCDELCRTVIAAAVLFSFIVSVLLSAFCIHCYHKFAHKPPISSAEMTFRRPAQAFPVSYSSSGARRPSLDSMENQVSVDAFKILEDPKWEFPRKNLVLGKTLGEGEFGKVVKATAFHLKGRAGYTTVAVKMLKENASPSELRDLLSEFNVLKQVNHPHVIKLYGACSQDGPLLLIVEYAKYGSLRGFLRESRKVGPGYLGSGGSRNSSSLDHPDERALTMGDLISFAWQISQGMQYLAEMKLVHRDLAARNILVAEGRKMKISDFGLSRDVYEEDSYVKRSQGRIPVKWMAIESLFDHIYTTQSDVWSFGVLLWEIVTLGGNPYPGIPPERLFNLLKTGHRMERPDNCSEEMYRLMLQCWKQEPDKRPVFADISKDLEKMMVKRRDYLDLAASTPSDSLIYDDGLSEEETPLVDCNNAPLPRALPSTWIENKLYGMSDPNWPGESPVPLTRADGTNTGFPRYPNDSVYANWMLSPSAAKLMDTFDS

[11] = test system: Proto-oncogene tyrosine-protein kinase receptor Ret (Homo sapiens), P07949 [V804M]; assay: as §2; details: at 10 µM
[12] = test system: Proto-oncogene tyrosine-protein kinase receptor Ret (Homo sapiens), P07949 [V804L]; assay: as §2; details: at 10 µM
Sequence of Proto-oncogene tyrosine-protein kinase receptor Ret (Homo sapiens), P07949 [V804L] (P07949 whole entry V804L): as the sequence (P07949 whole entry) above, with V804L counted along it

% of inhibition [1]: -17.4%
SMILES: Cn1cc(-n2cnc3c(NCc4nc5cc(Cl)c(Cl)cc5[nH]4)nc(N4CCOCC4)nc32)cn1

dTM [5]: 0.2 K
SMILES: CN(C(=O)c1cnn2cccnc12)c1cc2c(cc1N1CCOCC1)C(=O)N(C[C@@H](F)C(C)(C)O)C2

% activity ([9]; at 1 µM): > 90%
% activity ([9]; at 10 µM): > 80%
SMILES: Cc1cc(CN)cc(C)c1-c1ncn(C)c1-c1cncn1C

Second part, the compound before the results:

SMILES: CC[C@@H]1[C@H](F)C(=O)N[C@@H]1COc1nccc2cc(C(N)=O)c(OC)cc12 [ZIMLOVISERTIB]
% of inhibition [2]: -3.6%

SMILES: C=CC(=O)Nc1cccc(C(=O)Nc2ccc(Nc3cc(-c4[nH]c(SC)nc4C)ccn3)cc2)c1
% of control ([3]; at 1 µM): 108%
% of control ([3]; at 5 µM): 99%
% of control ([4]; at 1 µM): 96%
% of control ([4]; at 5 µM): 99%

SMILES: CN(C)C/C=C/C(=O)Nc1ccc(C(=O)N2CCCC(Nc3ncc(Cl)c(-c4c[nH]c5ccccc45)n3)C2)cc1 (stereo not given)
% of control [6]: 80%
% of control [7]: 92%
% of control [8]: 72%

SMILES: O[C@H]1CC[C@H](Nc2ncc3nc(Nc4c(F)cc(F)cc4F)n([C@H]4CCOC4)c3n2)CC1
% of control [10]: 100%
% of control [11]: 96%
% of control [12]: 100%
